Reference: ChEMBL document CHEMBL5214900, “Design, Synthesis, and Biological Evaluation of Membrane-Active Bakuchiol Derivatives as Effective Broad-Spectrum Antibacterial Agents” (J Med Chem, 2021)
In brackets after ≈: the same amount, converted by molar mass.

Key:
Acinetobacter baumannii [1] = experiment: Antibacterial activity against Acinetobacter baumannii ATCC 17978 assessed as inhibition of bacterial growth incubated for 24 hrs by CLSI based broth dilution method; assay type: functional
Klebsiella pneumoniae [2] = experiment: Antibacterial activity against Klebsiella pneumoniae ATCC 14581 assessed as inhibition of bacterial growth incubated for 24 hrs by CLSI based broth dilution method; assay type: functional
Acinetobacter baumannii [3] = experiment: Antibacterial activity against Acinetobacter baumannii R2889 assessed as inhibition of bacterial growth incubated for 24 hrs by CLSI based broth dilution method; assay type: functional
Klebsiella pneumoniae [4] = experiment: Antibacterial activity against Klebsiella pneumoniae ATCC 10031 assessed as inhibition of bacterial growth incubated for 24 hrs by CLSI based broth dilution method; assay type: functional
Pseudomonas aeruginosa = experiment: Antibacterial activity against Pseudomonas aeruginosa ATCC 9027 assessed as inhibition of bacterial growth incubated for 24 hrs by CLSI based broth dilution method; assay type: functional
Staphylococcus aureus [5] = experiment: Antibacterial activity against Staphylococcus aureus ATCC 29213 assessed as fold increase in MIC incubated for 24 hrs in presence of 1 mM Mg2+ by CLSI based broth dilution method; assay type: functional
Staphylococcus aureus [6] = experiment: Antibacterial activity against methicillin-resistant Staphylococcus aureus N315 assessed as inhibition of bacterial growth incubated for 24 hrs by CLSI based broth dilution method; assay type: functional
Staphylococcus aureus [7] = experiment: Antibacterial activity against Staphylococcus aureus NCTC10442 assessed as fold increase in MIC incubated for 24 hrs in presence of 140 mM Na+ by CLSI based broth dilution method; assay type: functional
Escherichia coli [8] = experiment: Antibacterial activity against Escherichia coli ATCC 25922 assessed as fold increase in MIC incubated for 24 hrs in presence of 2.5 mM Ca2+ by CLSI based broth dilution method; assay type: functional
Staphylococcus aureus [9] = experiment: Antibacterial activity against Staphylococcus aureus NCTC10442 assessed as fold increase in MIC incubated for 24 hrs in presence of 4.5 mM K+ by CLSI based broth dilution method; assay type: functional
Acinetobacter baumannii [10] = experiment: Antibacterial activity against Acinetobacter baumannii ATCC 17978 assessed as fold increase in MIC incubated for 24 hrs in presence of 4.5 mM K+ by CLSI based broth dilution method; assay type: functional
Acinetobacter baumannii [11] = experiment: Antibacterial activity against Acinetobacter baumannii ATCC 17978 assessed as fold increase in MIC incubated for 24 hrs in presence of 1 mM Mg2+ by CLSI based broth dilution method; assay type: functional
Escherichia coli [12] = experiment: Antibacterial activity against Escherichia coli ATCC 25922 assessed as fold increase in MIC incubated for 24 hrs in presence of 140 mM Na+ by CLSI based broth dilution method; assay type: functional
Staphylococcus aureus [13] = experiment: Antibacterial activity against Staphylococcus aureus ATCC 29213 assessed as fold increase in MIC incubated for 24 hrs in presence of 4.5 mM K+ by CLSI based broth dilution method; assay type: functional
Escherichia coli [14] = experiment: Antibacterial activity against Escherichia coli ATCC 25922 assessed as inhibition of bacterial growth incubated for 24 hrs by CLSI based broth dilution method; assay type: functional
Staphylococcus aureus [15] = experiment: Antibacterial activity against methicillin-resistant Staphylococcus aureus NCTC10442 assessed as inhibition of bacterial growth incubated for 24 hrs by CLSI based broth dilution method; assay type: functional
[16] = Hemolytic activity in rabbit RBC measured after 1 hrs by multimode reader assay; assay type: toxicity, cell-based, Oryctolagus cuniculus, Erythrocyte; details: rabbit red blood cells (erythrocytes)
Acinetobacter baumannii [17] = experiment: Antibacterial activity against Acinetobacter baumannii ATCC 17978 assessed as fold increase in MIC incubated for 24 hrs in presence of 140 mM Na+ by CLSI based broth dilution method; assay type: functional
Staphylococcus aureus [18] = experiment: Antibacterial activity against Staphylococcus aureus ATCC 29213 assessed as inhibition of bacterial growth incubated for 24 hrs by CLSI based broth dilution method; assay type: functional
Escherichia coli [19] = experiment: Antibacterial activity against Escherichia coli ATCC 25922 assessed as fold increase in MIC incubated for 24 hrs in presence of 4.5 mM K+ by CLSI based broth dilution method; assay type: functional
Staphylococcus aureus [20] = experiment: Antibacterial activity against Staphylococcus aureus ATCC 29213 assessed as fold increase in MIC incubated for 24 hrs in presence of 140 mM Na+ by CLSI based broth dilution method; assay type: functional
Staphylococcus aureus [21] = experiment: Antibacterial activity against Staphylococcus aureus NCTC10442 assessed as fold increase in MIC incubated for 24 hrs in presence of 2.5 mM Ca2+ by CLSI based broth dilution method; assay type: functional
Staphylococcus aureus [22] = experiment: Antibacterial activity against Staphylococcus aureus ATCC 29213 assessed as fold increase in MIC incubated for 24 hrs in presence of 2.5 mM Ca2+ by CLSI based broth dilution method; assay type: functional
Escherichia coli [23] = experiment: Antibacterial activity against Escherichia coli ATCC 25922 assessed as fold increase in MIC incubated for 24 hrs in presence of 1 mM Mg2+ by CLSI based broth dilution method; assay type: functional
Acinetobacter baumannii [24] = experiment: Antibacterial activity against Acinetobacter baumannii ATCC 17978 assessed as fold increase in MIC incubated for 24 hrs in presence of 2.5 mM Ca2+ by CLSI based broth dilution method; assay type: functional
Staphylococcus aureus [25] = experiment: Antibacterial activity against Staphylococcus aureus NCTC10442 assessed as fold increase in MIC incubated for 24 hrs in presence of 1 mM Mg2+ by CLSI based broth dilution method; assay type: functional
[26] = Dissociation constant, pKa of compound by potentiometric titration method; assay type: physicochemical

Structure (SMILES)	MIC (Acinetobacter baumannii [1]) [µg/mL]	MIC (Klebsiella pneumoniae [2]) [µg/mL]	MIC (Acinetobacter baumannii [3]) [µg/mL]	MIC (Klebsiella pneumoniae [4]) [µg/mL]	MIC (Pseudomonas aeruginosa) [µg/mL]	fold change (FC) (Staphylococcus aureus [5])	MIC (Staphylococcus aureus [6]) [µg/mL]	fold change (FC) (Staphylococcus aureus [7])	fold change (FC) (Escherichia coli [8])	fold change (FC) (Staphylococcus aureus [9])	fold change (FC) (Acinetobacter baumannii [10])	fold change (FC) (Acinetobacter baumannii [11])	fold change (FC) (Escherichia coli [12])	fold change (FC) (Staphylococcus aureus [13])	MIC (Escherichia coli [14]) [µg/mL]	MIC (Staphylococcus aureus [15]) [µg/mL]	HC50 at 1 h [16] [µg/mL]	fold change (FC) (Acinetobacter baumannii [17])	MIC (Staphylococcus aureus [18]) [µg/mL]	fold change (FC) (Escherichia coli [19])	further results
CC[C@H](C)[C@H](NC(=O)CN)C(=O)NCC(=O)N[C@@H](C)C(=O)N[C@H](C(=O)N[C@@H](CC(C)C)C(=O)N[C@@H](CCCCN)C(=O)N[C@H](C(=O)N[C@@H](CC(C)C)C(=O)N[C@H](C(=O)N[C@H](C(=O)NCC(=O)N[C@@H](CC(C)C)C(=O)N1CCC[C@H]1C(=O)N[C@@H](C)C(=O)N[C@@H](CC(C)C)C(=O)N[C@H](C(=O)N[C@@H](CO)C(=O)N[C@@H](Cc1c[nH]c2ccccc12)C(=O)N[C@H](C(=O)N[C@@H](CCCCN)C(=O)N[C@@H](CCCNC(=N)N)C(=O)N[C@@H](CCCCN)C(=O)N[C@@H](CCCNC(=N)N)C(=O)N[C@@H](CCC(N)=O)C(=O)N[C@@H](CCC(N)=O)C(N)=O)[C@@H](C)CC)[C@@H](C)CC)[C@@H](C)O)[C@@H](C)O)C(C)C)C(C)C [MELITTIN]	3.12 (≈ 1.1 µM)	6.25 (≈ 2.2 µM)	3.12 (≈ 1.1 µM)	6.25 (≈ 2.2 µM)																	
C=C[C@@](C)(/C=C/c1ccc(OCCCCNCCN(CCN)CCN)cc1)CCC=C(C)C	6.25 (≈ 13.7 µM)	1.56 (≈ 3.42 µM)	6.25 (≈ 13.7 µM)	1.56 (≈ 3.42 µM)	3.12 (≈ 6.84 µM)	<2	0.78 (≈ 1.71 µM)	<2	<2	<2	<2	<2	<2	<2	3.12 (≈ 6.84 µM)	0.78 (≈ 1.71 µM)	32.9	<2	0.78 (≈ 1.71 µM)	<2	fold change (FC) (Staphylococcus aureus [20]): <2; fold change (FC) (Staphylococcus aureus [21]): <2; fold change (FC) (Staphylococcus aureus [22]): <2; fold change (FC) (Escherichia coli [23]): <2; fold change (FC) (Acinetobacter baumannii [24]): <2; fold change (FC) (Staphylococcus aureus [25]): <2
C=C[C@@](C)(/C=C/c1ccc(OCCCCN)cc1)CCC=C(C)C							0.78 (≈ 2.38 µM)								12.5 (≈ 38.2 µM)	1.56 (≈ 4.76 µM)	65.9		1.56 (≈ 4.76 µM)		pKa [26]: 9.54
C=C[C@@](C)(/C=C/c1ccc(OCCCCN2CCSCC2)cc1)CCC=C(C)C							> 50								> 100	> 50	> 200		> 50		pKa [26]: 8.41
C=C[C@@](C)(/C=C/c1ccc(OCCCCN2CCCNCCNCCCNCC2)cc1)CCC=C(C)C	3.12 (≈ 6.12 µM)	3.12 (≈ 6.12 µM)	3.12 (≈ 6.12 µM)	1.56 (≈ 3.05 µM)	12.5 (≈ 24.5 µM)	<2	0.78 (≈ 1.53 µM)	<2	<2	<2	<2	<2	<2	<2	3.12 (≈ 6.12 µM)	0.78 (≈ 1.53 µM)	62.7	<2	0.78 (≈ 1.53 µM)	<2	fold change (FC) (Staphylococcus aureus [20]): <2; fold change (FC) (Staphylococcus aureus [21]): <2; fold change (FC) (Staphylococcus aureus [22]): <2; fold change (FC) (Escherichia coli [23]): <2; fold change (FC) (Acinetobacter baumannii [24]): <2; fold change (FC) (Staphylococcus aureus [25]): <2
